From patent US11273217B2, “Cancer treatment composition combining anti-CD26 antibody and other anticancer agent” (Y's AC Co., Ltd., priority 2015, dated 2022)

How the values were obtained:
JMN cells [1] = assay: MTT cell growth assay, JMN; type: cell-based; settings: for growth inhibitory effect compared between MESO1 and JMN: MESO1 (CD9+) vs JMN (CD9−)
Protocol: (§1) Gemcitabine was studied for its effect on the growth of a mesothelioma cell line. A mesothelioma cell line MESO1, JMN, H2452, or H226 (2×10^3 cells/well) was inoculated to a 96-well plate. One hour later, gemcitabine (10^−9, 10^−8, 10^−7, 10^−6, 10^−5, or 10^−4 M) was added thereto (N=6). 2 days later, MTT assay was conducted. Significant difference was tested by two-tailed t-test (vs Cont).
(§2) JMN cells (2×10^3 cells/well) were inoculated to a 96-well plate. One hour later, gemcitabine (0, 3×10^−10, 10^−9, or 3×10^−8 M) and YS110 (0, 1, 3, or 10 μg/ml) were added thereto in combination. At day 2, MTT assay was conducted. Significant difference was tested by two-tailed t-test (vs Cont). Next, interaction in concomitant use of medications was studied (n=6). The interaction between YS110 and gemcitabine used concomitantly was analyzed by two-way ANOVA.
(§3) MESO1, JMN, H2452 or H226 cells (2×10^3 cells/well were inoculated to a 96-well plate. One hour later, 3×10^−8 M or 10^−7 M gemcitabine was added thereto by concomitant use with the combination of cisplatin (0, 0.1, 0.3, or 1 μM) and pemetrexed (0, 0.03, 0.1, or 0.3 μM) (n=6). At day 2, MTT assay was conducted.
(§4) The growth inhibitory effects of cisplatin (10^−9 to 10^−4 M) and pemetrexed (10^−9 to 10^−4 M) were compared using the MESO1 and JMN cell lines.
(§5) The growth inhibitory effect of gemcitabine (10^−9 to 10^−4 M) was compared using MESO1, H2452, JMN, and H226 cell lines.

MESO1 cells [2] = assay: Boyden chamber invasion assay, MESO1; type: cell-based; settings: 24 hours; for action on cell invasion (in words): cisplatin at 10 and 30 μM, pemetrexed even at 30 μM
Protocol: (§6) MESO1 cells or H2452 cells (2.5×10^4 cells/well) were inoculated to a Boyden chamber. One hour later, cisplatin (5, 10, or 30 μM) or pemetrexed (1, 10, or 30 μM) was added thereto (n=5), followed by Boyden chamber invasion assay. 24 hours after the cell inoculation, invasive cells were stained with Diff-Quik-staining kit. Significant difference was tested by two-tailed t-test (vs Cont).
(§7) MESO1 cells or H2452 cells (2.5×10^4 cells/well) were inoculated to a Boyden chamber. One hour later, the combination of cisplatin (0, 3, or 10 μM) and pemetrexed (0, 10, or 30 μM) was added thereto (n=5), followed by Boyden chamber invasion assay. 24 hours after the cell inoculation, invasive cells were stained with Diff-Quik-staining kit. Significant difference was tested by two-tailed t-test (vs Cont).
as §7, with “MESO1” for “MESO1 cells or H2452”, “YS110” for “pemetrexed”, “20 μg/ml)” for “30 μM)”, “Cont). Next, the interaction of YS110 with cisplatin-pemetrexed concomitant use was studied. The interaction was analyzed by two-way ANOVA.” for “Cont).”

MESO1 cells [3] = assay: MTT cell growth assay, MESO1; type: cell-based; settings: day 2; for cell growth, single drug dose-response (in words): 10^−9 to 10^−4 M
Protocol: (§8) MESO1 or H2452 cells (2×10^3 cells/well) were inoculated to a 96-well plate. One hour later, cisplatin or pemetrexed was added thereto at 10^−9, 10^−8, 10^−7, 10^−6, 10^−5, or 10^−4 M (n=6). At day 2, MTT assay was conducted.
MESO1 cells (2×10^3 cells/well) were inoculated to a 96-well plate. One hour later, the combination of 0.3, 3, or 10 μM cisplatin and 0.1, 3, or 10 μg/ml YS110, or the combination of 0.03, 0.3, or 1 μM pemetrexed and 0.1, 3, or 10 μg/ml YS110 was added thereto. At day 2, MTT assay was conducted. Significant difference was tested by two-tailed t-test (vs Cont).
(§9) MESO1 cells (2×10^3 cells/well) or H2452 cells (2×10^3 cells/well) were inoculated to a 96-well plate. One hour later, 0.3 μM cisplatin-0.1 μM pemetrexed combination, or YS110 (10 μg/ml) plus the 0.3 μM cisplatin-0.1 μM pemetrexed combination was added thereto (n=6). At day 2, MTT assay was conducted. Significant difference was tested by two-tailed t-test (vs Cont).
as §1
as §2, with “MESO1” for “JMN”, “10^−8, 3×10^−8,” for “3×10^−10, 10^−9,”, “10^−7” for “3×10^−8”
as §3, §4, §5

H2452 cells [4] = assay: Boyden chamber invasion assay, H2452; type: cell-based; settings: 24 hours; for action on cell invasion (in words): cisplatin at 10 and 30 μM, pemetrexed even at 30 μM
Protocol: as §6, §7
as §7, with “H2452” for “MESO1 cells or H2452”, “YS110” for “pemetrexed”, “20 μg/ml)” for “30 μM)”, “Cont). Next, the interaction of YS110 with cisplatin-pemetrexed concomitant use was studied. The interaction was analyzed by two-way ANOVA.” for “Cont).”

H2452 cells [5] = assay: MTT cell growth assay, H2452; type: cell-based; settings: day 2; for cell growth, single drug dose-response (in words): 10^−9 to 10^−4 M
Protocol: as §8
H2452 cells (2×10^3 cells/well) were inoculated to a 96-well plate. One hour later, the combination of 0.03, 0.3, or 1 μM cisplatin and 0.1, 3, or 10 μg/ml YS110, or the combination of 0.01, 0.1, or 0.3 μM pemetrexed and 0.1, 3, or 10 μg/ml YS110 was added thereto (n=6). At day 2, MTT assay was conducted. Significant difference was tested by two-tailed t-test (vs Cont).
as §9, §1
as §2, with “H2452” for “JMN”, “10^−8, 3×10^−8,” for “3×10^−10, 10^−9,”, “10^−7” for “3×10^−8”
as §3, §5

[6] = tested on: Jurkat CD26(+) (T-cell leukemia cell line); assay: WST-1 cytotoxicity assay, Jurkat CD26(+); type: cell-based; settings: 48 hours
Text: (§10) A CD26-negative malignant mesothelioma cell line MSTO-211H (MSTO) (American Type Cell Culture Collection, Manassas, Va.) was transfected with CD26 gene, which was designated as MSTO clone 12 (Aoe K et al., Clin Cancer Res. (2012) 18: 1447-56). A CD26-negative T-cell leukemia cell line Jurkat (American Type Cell Culture Collection, Manassas, Va.) was transfected with CD26 gene, which was designated as Jurkat CD26(+) (Tanaka T et al., Proc Natl Acad Sci USA (1993) 90: 4586-90). A CD26-positive cell line JMN established from malignant mesothelioma was kindly provided by professor Chikao Morimoto, the Institute of Medical Science, the University of Tokyo. All the cell lines were cultured in RPMI medium (catalog No. 11875-093, Life Technologies Corp., Carlsbad, Calif.) containing 10% heat-inactivated fetal bovine serum (FBS, Life Technologies Corp., Carlsbad, Calif.), ABPC (100 μg/ml), and streptomycin (100 μg/ml) at 37° C. under 5% CO2 environment.
(§11) WST-1 assay was conducted according to the manual provided by the manufacturer. The background absorbance of each sample at 630 nm was subtracted from the measurement value thereof at 450 nm.

[7] = tested on: Jurkat CD26(−) (T-cell leukemia cell line); assay: WST-1 cytotoxicity assay, Jurkat CD26(−); type: cell-based; settings: 48 hours
Text: as §10
(§12) WST-1 assay was conducted according to the manual provided by the manufacturer. The background absorbance of each sample at 630 nm was subtracted from the measurement value thereof at 450 nm. The experiment was conducted in triplicate, and typical results are shown.

[8] = tested on: MSTO clone 12 (CD26-positive malignant mesothelioma cell line); assay: WST-1 cytotoxicity assay, MSTO clone 12; type: cell-based; settings: 48 hours
Text: as §10, §11

[9] = tested on: JMN (CD26-positive malignant mesothelioma cell line); assay: WST-1 cytotoxicity assay, JMN; type: cell-based; settings: 48 hours
Text: as §10, §11

[10] = tested on: MSTO-wt (CD26-negative malignant mesothelioma cell line MSTO-211H); assay: WST-1 cytotoxicity assay, MSTO wt; type: cell-based; settings: 48 hours
Text: as §10, §12

H226 = assay: In vivo growth of epithelioid mesothelioma cell H226 in SCID mice (tumor weight); settings: YS110 10 mg/kg, gemcitabine 20 mg/kg, intraperitoneal, days 2 and 4; day 7
Protocol: H226 (3.8×10^5 cells/animal) was subcutaneously transplanted to the backs of female SCID mice. The day of transplantation was defined as day 0. YS110 (10 mg/kg), gemcitabine (20 mg/kg), or YS110 (10 mg/kg)+gemcitabine (20 mg/kg) was intraperitoneally administered to the mice twice (days 2 and 4) (n=6). At day 7, their tumors were excised, and the tumor weights were measured. Significant difference was tested by two-tailed t-test (vs Cont). The interaction between YS110 and gemcitabine used concomitantly was analyzed by two-way ANOVA.

JMN cells [11] = assay: In vivo JMN cell growth in SCID mice (tumor weight); settings: YS110 10 mg/kg, gemcitabine 10 mg/kg, intraperitoneal, days 2 and 4; day 7
H226 cells = assay: MTT cell growth assay, H226; type: cell-based
Protocol: as §1
as §2, with “H226” for “JMN”, “10^−8, 3×10^−8,” for “3×10^−10, 10^−9,”, “10^−7” for “3×10^−8”
as §3, §5

[12] = 3×10^−8 M or 10^−7 M gemcitabine with cisplatin 0-1 μM and pemetrexed 0-0.3 μM, day 2
[13] = 3×10^−8 M or 10^−7 M gemcitabine with cisplatin 0-1 μM and pemetrexed 0-0.3 μM
[14] = pemetrexed even at 30 μM with cisplatin 10 μM

## N.N.[Cl][Pt][Cl] [cisplatin]
JMN cells [1]; 10^−9 to 10^−4 M
  growth inhibitory effect compared between MESO1 and JMN: did not differ
MESO1 cells [2]
  action on cell invasion (in words): suppressed cell invasion
MESO1 cells [3]
  cell growth, single drug dose-response (in words): suppressed the growth
H2452 cells [4]
  action on cell invasion (in words): suppressed cell invasion
H2452 cells [5]
  cell growth, single drug dose-response (in words): suppressed the growth

## CC(C)[C@]12O[C@H]1[C@@H]1O[C@@]13C1(C)CCC4=C(COC4=O)[C@@H]1C[C@@H]1O[C@@]13[C@@H]2O (stereo partly drawn) [Triptolide, (3bS,4aS,5aS,6R,6aR,7aS,7bS,8aS,8bS)-6-hydroxy-6a-isopropyl-8b-methyl-3b,4,4a,6,6a,7a,7b,8b,9,10-decahydrotrisoxireno[6,7:8a,9:4b,5]phenanthro[1,2-c]furan-1(3H)-one]
[6]; Homo sapiens, Jurkat CD26 (+)
  IC50: 6 nM
[6]; Jurkat CD26(+)
  cytotoxicity (in words): dose-dependent toxic effect
[7]; Homo sapiens, Jurkat (−)
  IC50: > 100 nM
[7]; Jurkat
  cytotoxicity (in words): dose-dependent toxic effect
[8]; MSTO clone12, CD26 (+), read-out: IC50
  IC50: 10 nM
[8]; MSTO clone 12
  cytotoxicity (in words): dose-dependent toxic effect
[9]
  cytotoxicity (in words): dose-dependent toxic effect
[9]; CD26 (+)
  IC50: 15 nM
[10]; Homo sapiens, MSTO-211H, MSTO wt, CD26 (−)
  IC50: 10 nM
[10]; MSTO-wt
  cytotoxicity (in words): dose-dependent toxic effect

## Nc1ccn([C@@H]2O[C@H](CO)[C@@H](O)C2(F)F)c(=O)n1 [gemcitabine]
JMN cells [1]; [12]
  effect of gemcitabine on the growth inhibitory action of cisplatin-pemetrexed: did not potentiate
JMN cells [1]; 10^−9 to 10^−4 M, 2 days
  cell growth, gemcitabine dose-response compared among mesothelioma cell lines (in words): more strongly suppressed the growth
JMN cells [1]; 10^−9 to 10^−4 M
  growth inhibitory effect compared between MESO1 and JMN: significantly stronger growth inhibitory effect on JMN than on MESO1
H226
  inhibitory effect (tumor weight): 29%
MESO1 cells [3]; [13]
  effect of gemcitabine on the growth inhibitory action of cisplatin-pemetrexed: did not potentiate
JMN cells [11]
  inhibitory effect (tumor weight): 29%
H2452 cells [5]; [13]
  effect of gemcitabine on the growth inhibitory action of cisplatin-pemetrexed: did not potentiate
H226 cells; [12]
  effect of gemcitabine on the growth inhibitory action of cisplatin-pemetrexed: did not potentiate
H226 cells; 10^−9 to 10^−4 M, 2 days
  cell growth, gemcitabine dose-response compared among mesothelioma cell lines (in words): more strongly suppressed the growth
H226 cells; H2452 (CD9+) vs H226 (CD9−), 10^−9 to 10^−4 M
  growth inhibitory effect compared between H2452 and H226: significantly stronger growth inhibitory effect on H226 than on H2452

## Nc1nc2[nH]cc(CCc3ccc(C(=O)N[C@@H](CCC(=O)O)C(=O)O)cc3)c2c(=O)[nH]1 [pemetrexed]
JMN cells [1]; 10^−9 to 10^−4 M
  growth inhibitory effect compared between MESO1 and JMN: did not differ
MESO1 cells [2]
  action on cell invasion (in words): no inhibitory action on invasion
MESO1 cells [2]; [14]
  effect of pemetrexed on the cell invasion inhibitory effect of cisplatin: did not potentiate
MESO1 cells [3]
  cell growth, single drug dose-response (in words): suppressed the growth
H2452 cells [4]
  action on cell invasion (in words): no inhibitory action on invasion
H2452 cells [4]; [14]
  effect of pemetrexed on the cell invasion inhibitory effect of cisplatin: did not potentiate
H2452 cells [5]
  cell growth, single drug dose-response (in words): suppressed the growth
